Source: ChEMBL document CHEMBL1201862, “PubChem BioAssay data set” (2004)
Active and inactive are the calls of the source.

Key:
[1] = viability of uninfected HEp-2 cells – cell-based, HTS, cytotoxicity control for RSV inhibitor project, dose response (AID 2410); format: functional; settings: human respiratory syncytial virus
[2] = test system: Streptococcus sp. 'group A'; experiment: Streptococcus pyogenes SK(-)GAS viability under kanamycin – luminescence, BacTiterGlo, confirmation, counter-screen for streptokinase expression inhibitor project, dose response (AID 1900); format: functional, organism-based
Streptokinase A = molecular target: T1, Streptokinase A (Streptococcus pyogenes serotype M1, UniProt P10520); experiment: viability-normalized secreted streptokinase activity reduction – plasminogen activation absorbance, OD405, dose response (AID 1914); format: functional, Streptococcus pyogenes M1 GAS;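 note: secreted streptokinase activity via plasminogen activation per viability signal from cell pellet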
T1 sequence (P10520 whole entry): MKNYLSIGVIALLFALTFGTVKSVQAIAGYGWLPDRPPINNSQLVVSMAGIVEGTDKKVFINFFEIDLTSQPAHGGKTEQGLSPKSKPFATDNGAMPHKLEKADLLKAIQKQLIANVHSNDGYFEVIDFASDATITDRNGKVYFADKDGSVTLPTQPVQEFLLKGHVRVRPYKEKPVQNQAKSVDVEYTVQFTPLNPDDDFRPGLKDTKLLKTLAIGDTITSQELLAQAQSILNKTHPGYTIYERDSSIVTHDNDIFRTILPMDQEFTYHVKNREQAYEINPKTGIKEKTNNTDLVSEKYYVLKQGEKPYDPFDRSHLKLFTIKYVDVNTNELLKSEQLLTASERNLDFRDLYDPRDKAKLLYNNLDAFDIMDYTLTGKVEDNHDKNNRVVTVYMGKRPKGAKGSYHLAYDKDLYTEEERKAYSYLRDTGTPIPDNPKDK

[3] = molecular target: G-protein coupled receptor 55 (Homo sapiens, UniProt Q9Y2T6); experiment: inhibition of LPI-stimulated GPR55 beta-arrestin translocation – imaging, U2OS, beta-arrestin-GFP, LPI agonist, primary screen (AID 2013); format: functional;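 note: antagonist potency measured as reduced agonist-driven arrestin aggregation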
Sequence of G-protein coupled receptor 55 (Q9Y2T6 whole entry): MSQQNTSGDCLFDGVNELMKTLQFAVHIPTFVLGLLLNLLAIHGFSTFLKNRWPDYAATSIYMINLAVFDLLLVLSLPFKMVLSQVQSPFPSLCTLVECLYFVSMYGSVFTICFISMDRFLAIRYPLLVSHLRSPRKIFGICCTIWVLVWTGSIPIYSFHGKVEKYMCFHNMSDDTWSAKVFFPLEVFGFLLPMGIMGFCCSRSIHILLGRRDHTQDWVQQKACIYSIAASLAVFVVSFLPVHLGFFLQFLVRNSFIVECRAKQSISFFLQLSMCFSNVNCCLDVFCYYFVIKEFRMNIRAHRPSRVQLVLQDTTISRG

Streptococcus = experiment: GAS UMAA2166 growth inhibition – luminescence, BacTiterGlo, counter-screen for streptokinase expression inhibitor project, dose response (AID 1915); format: functional, organism-based;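 note: potency for reduction of bacterial viability or growth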
[4] = molecular target: T2, Replicative DNA helicase DnaB (Mycobacterium tuberculosis, UniProt P9WMR3); experiment: DnaB intein splicing inhibitors, dose response, biochemical, cell-free fluorescence (AID 449749); format: functional
T2 sequence (P9WMR3 whole entry): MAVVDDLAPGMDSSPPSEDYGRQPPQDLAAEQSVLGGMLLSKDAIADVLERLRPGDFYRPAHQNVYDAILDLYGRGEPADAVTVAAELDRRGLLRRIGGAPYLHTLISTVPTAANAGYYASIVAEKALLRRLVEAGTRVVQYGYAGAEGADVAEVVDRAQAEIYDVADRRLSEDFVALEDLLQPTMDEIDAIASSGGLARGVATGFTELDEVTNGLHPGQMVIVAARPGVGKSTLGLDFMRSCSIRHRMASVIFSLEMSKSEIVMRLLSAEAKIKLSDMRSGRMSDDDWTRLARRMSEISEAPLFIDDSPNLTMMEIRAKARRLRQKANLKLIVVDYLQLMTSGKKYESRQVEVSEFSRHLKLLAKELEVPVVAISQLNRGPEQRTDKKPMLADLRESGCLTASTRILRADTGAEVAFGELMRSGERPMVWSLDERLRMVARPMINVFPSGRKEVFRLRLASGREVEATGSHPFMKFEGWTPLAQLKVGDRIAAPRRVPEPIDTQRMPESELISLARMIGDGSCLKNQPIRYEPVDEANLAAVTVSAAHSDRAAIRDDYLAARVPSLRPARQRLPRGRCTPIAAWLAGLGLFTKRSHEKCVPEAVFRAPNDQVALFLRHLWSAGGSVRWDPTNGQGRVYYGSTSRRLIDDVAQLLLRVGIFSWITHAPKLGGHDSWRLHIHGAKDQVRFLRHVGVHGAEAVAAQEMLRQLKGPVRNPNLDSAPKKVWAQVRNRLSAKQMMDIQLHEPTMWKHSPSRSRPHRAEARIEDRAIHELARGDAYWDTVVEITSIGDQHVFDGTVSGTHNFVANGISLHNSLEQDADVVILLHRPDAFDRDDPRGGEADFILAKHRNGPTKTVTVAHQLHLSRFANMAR

Protein RecA = molecular target: T3, Protein RecA (Mycobacterium tuberculosis, UniProt P9WHJ3); experiment: Fluorescence Cell-Free Homogeneous Dose Retest to Identify Inhibitors of RecA-Intein Splicing Activity. [Related pubchem assays (depositor defined):AID2097, AID2223, AID489010, AID492950]; format: functional
T3 sequence (P9WHJ3 whole entry): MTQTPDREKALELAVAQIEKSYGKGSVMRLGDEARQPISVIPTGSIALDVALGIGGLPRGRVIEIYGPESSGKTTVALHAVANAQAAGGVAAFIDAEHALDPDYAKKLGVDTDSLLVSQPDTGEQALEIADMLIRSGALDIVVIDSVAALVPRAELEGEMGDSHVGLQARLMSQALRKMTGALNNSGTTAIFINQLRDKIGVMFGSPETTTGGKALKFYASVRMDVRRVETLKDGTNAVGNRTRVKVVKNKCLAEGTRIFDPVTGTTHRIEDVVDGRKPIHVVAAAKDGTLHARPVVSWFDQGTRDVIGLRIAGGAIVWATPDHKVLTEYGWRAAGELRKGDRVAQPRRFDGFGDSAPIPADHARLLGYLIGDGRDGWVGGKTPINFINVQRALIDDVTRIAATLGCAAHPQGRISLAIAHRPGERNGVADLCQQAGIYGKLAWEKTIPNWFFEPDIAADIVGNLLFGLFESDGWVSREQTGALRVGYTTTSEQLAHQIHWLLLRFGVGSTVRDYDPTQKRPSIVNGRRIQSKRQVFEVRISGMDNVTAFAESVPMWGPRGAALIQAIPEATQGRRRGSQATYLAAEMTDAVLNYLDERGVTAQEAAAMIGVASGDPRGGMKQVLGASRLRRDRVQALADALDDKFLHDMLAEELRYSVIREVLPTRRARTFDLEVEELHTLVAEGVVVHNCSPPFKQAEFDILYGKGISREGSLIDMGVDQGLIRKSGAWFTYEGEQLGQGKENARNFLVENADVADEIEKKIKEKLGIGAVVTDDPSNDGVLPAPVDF

[5] = luciferase reporter signal suppression in cells – H4 neuroglioma cells, luminescence, dose response (AID 1990); format: functional, cell-based
[6] = luciferase reporter signal reduction – luminescence, H4-C neuroglioblastoma cells, dose response (AID 2458); format: functional, cell-based;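 note: H4 neuroglioblastoma cells stably carrying a luciferase reporter gene fusion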
cells = format: functional, cell-based
[7] = Luminescence Cell-Based Dose Response HTS to Identify Inhibitors of 5'UTR Stem-Loop Driven Prion Protein mRNA Translation in H4 Neuroglioblastoma Cells. [Related pubchem assays: 1827 (Project Summary), 1813 (Primary HTS)]; format: functional
[8] = alpha-synuclein stem-loop luciferase translation blockers – H4 neuroglioma cells, luminescence, confirmation (AID 1988); format: functional, cell-based
[9] = alpha-synuclein stem-loop translation blockers – luminescence, H4 neuroglioblastoma cells, dose confirmation, confirmation (AID 2454); format: functional, cell-based;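 note: H4 neuroglioblastoma cells carrying an alpha-synuclein 5'UTR luciferase reporter; potency for inhibition of the luciferase signal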
[10] = molecular target: Eukaryotic translation initiation factor 4H (Homo sapiens, UniProt Q15056); experiment: inhibitors of translation initiation factor eIF4H – SAR follow-up (AID 435011); format: functional
[11] = HEK-293T viability loss after treatment – luminescence, T-cell screen hits, cytotoxicity control for TCR NF-kB inhibitor project, dose response (AID 489026); format: functional, cell-based;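 note: cells exposed to compound about 14 hours before the viability readout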
[12] = molecular target: Intestinal-type alkaline phosphatase (Homo sapiens, UniProt P09923); experiment: Dose Response confirmation of uHTS hits from a small molecule inhibitors of human intestinal alkaline phosphatase via a luminescent assay. [Related pubchem assays (depositor defined):AID2544, AID2574]; format: functional
Sequence of Intestinal-type alkaline phosphatase (P09923 whole entry): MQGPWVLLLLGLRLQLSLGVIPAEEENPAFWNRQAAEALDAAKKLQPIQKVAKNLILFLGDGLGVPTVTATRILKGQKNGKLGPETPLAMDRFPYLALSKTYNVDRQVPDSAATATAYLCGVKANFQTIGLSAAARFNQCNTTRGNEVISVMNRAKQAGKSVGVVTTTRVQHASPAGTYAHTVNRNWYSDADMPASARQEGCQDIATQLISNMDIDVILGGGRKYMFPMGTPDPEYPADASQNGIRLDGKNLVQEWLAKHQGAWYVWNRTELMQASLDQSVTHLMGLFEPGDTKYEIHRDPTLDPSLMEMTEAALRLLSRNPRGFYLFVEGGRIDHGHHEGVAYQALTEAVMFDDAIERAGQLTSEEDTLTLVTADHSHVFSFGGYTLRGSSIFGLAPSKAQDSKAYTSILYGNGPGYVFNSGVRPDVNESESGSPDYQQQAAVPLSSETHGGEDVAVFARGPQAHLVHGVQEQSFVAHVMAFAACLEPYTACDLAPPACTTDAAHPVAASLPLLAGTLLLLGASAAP

H9c2 = experiment: cells; format: functional, cell-based; settings: Rattus norvegicus, H9c2, Myocardium;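 note: confirmatory concentration-response retest of ultra-high-throughput screening hits for modulation of myocardial damage; cell death induced by hydrogen peroxide oxidative stress; compound pretreatment for 60 min then peroxide exposure for 2 h; potency is for protecting the cells against peroxide damage rather than for killing them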
[13] = molecular target: T4, Mannose-6-phosphate isomerase (Homo sapiens, UniProt P34949); experiment: phosphomannose isomerase inhibition – biochemical, fluorescence intensity, confirmation (AID 1535)
T4 sequence (P34949 whole entry): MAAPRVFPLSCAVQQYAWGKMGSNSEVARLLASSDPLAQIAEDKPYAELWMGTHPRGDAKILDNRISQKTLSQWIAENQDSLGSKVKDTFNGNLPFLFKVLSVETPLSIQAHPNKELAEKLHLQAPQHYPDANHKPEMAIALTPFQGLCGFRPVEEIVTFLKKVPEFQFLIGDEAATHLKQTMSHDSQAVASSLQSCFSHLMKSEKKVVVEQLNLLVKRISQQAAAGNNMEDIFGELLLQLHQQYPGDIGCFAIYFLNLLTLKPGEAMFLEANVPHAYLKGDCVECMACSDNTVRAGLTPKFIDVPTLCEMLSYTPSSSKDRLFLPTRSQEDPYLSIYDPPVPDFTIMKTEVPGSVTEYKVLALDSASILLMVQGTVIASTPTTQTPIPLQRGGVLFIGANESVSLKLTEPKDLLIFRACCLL

Phosphomannomutase 2 = Phosphomannomutase 2 (Homo sapiens, UniProt O15305); experiment: Counter screen SAR assay for PMM2 inhibitors via a fluorescence intensity assay. [Related pubchem assays (depositor defined):AID1545, AID1574]
Sequence of Phosphomannomutase 2 (O15305 whole entry): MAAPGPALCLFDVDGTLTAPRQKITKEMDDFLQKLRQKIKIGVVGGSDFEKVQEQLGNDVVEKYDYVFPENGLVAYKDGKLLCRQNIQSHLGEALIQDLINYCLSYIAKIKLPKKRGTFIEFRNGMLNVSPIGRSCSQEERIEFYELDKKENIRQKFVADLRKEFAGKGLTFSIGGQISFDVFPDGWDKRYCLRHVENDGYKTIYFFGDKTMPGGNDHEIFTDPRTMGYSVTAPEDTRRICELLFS

Mu-type opioid receptor = Mu-type opioid receptor (Homo sapiens, UniProt P35372); experiment: SAR Analysis of Agonists of the MOR Receptor using an Image-Based Assay - Set 3. [Related pubchem assays (depositor defined):AID1777, AID1785, AID1786, AID1966, AID2133, AID2136, AID2284, AID2285, AID2352]; format: functional
Sequence of Mu-type opioid receptor (P35372 whole entry): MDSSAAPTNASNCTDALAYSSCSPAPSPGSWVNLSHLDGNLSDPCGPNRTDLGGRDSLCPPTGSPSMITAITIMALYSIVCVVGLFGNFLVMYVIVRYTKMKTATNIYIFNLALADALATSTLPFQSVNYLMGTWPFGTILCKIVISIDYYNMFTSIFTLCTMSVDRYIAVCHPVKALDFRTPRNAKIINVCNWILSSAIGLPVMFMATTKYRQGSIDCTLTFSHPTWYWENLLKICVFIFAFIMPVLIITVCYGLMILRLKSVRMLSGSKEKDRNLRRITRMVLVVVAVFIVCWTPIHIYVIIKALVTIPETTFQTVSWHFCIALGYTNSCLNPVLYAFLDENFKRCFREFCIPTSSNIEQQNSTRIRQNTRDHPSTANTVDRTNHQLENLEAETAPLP

[14] = molecular target: Delta-type opioid receptor (Homo sapiens, UniProt P41143); experiment: SAR Analysis of Agonists of the DOR Receptor using an Image-Based Assay - Set 3. [Related pubchem assays (depositor defined):AID1777, AID1786]; format: functional
Sequence of Delta-type opioid receptor (P41143 whole entry): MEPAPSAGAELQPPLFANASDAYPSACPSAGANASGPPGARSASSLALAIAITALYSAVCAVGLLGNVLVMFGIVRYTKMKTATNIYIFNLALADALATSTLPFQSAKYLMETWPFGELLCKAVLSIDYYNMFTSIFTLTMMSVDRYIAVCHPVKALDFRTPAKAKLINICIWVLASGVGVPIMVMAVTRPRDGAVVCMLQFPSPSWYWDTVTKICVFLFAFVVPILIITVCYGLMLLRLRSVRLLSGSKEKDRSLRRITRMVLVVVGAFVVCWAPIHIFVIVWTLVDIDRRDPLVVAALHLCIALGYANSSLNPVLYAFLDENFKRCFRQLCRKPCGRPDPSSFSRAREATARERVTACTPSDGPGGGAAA

[15] = molecular target: Kappa-type opioid receptor (Homo sapiens, UniProt P41145); experiment: SAR analysis of small molecule agonists of the kappa opioid receptor via a luminescent beta-arrestin assay - Set 3. [Related pubchem assays (depositor defined):AID1777, AID1785, AID1786, AID1966, AID2133, AID2136, AID2284, AID2500]; format: functional
Sequence of Kappa-type opioid receptor (P41145 whole entry): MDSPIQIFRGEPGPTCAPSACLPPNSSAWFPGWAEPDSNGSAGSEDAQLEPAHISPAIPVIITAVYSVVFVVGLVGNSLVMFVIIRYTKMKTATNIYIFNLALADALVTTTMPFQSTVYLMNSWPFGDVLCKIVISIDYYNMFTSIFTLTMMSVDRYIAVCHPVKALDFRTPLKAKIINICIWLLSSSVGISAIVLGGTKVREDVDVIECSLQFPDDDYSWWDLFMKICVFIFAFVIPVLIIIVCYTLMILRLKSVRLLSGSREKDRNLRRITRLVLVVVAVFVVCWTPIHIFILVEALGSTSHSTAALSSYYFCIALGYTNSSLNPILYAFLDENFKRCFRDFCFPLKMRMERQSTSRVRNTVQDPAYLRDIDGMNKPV

Hexokinase = Hexokinase (Trypanosoma brucei, UniProt Q38C41); experiment: Confirmation assay for inhibitors of Trypanosoma brucei hexokinase 1-Analogue-first series. [Related pubchem assays (depositor defined):AID1430, AID1632, AID2516, AID2560, AID2579, AID2600, AID449725, AID492951]; format: functional
Sequence of Hexokinase (Q38C41 whole entry): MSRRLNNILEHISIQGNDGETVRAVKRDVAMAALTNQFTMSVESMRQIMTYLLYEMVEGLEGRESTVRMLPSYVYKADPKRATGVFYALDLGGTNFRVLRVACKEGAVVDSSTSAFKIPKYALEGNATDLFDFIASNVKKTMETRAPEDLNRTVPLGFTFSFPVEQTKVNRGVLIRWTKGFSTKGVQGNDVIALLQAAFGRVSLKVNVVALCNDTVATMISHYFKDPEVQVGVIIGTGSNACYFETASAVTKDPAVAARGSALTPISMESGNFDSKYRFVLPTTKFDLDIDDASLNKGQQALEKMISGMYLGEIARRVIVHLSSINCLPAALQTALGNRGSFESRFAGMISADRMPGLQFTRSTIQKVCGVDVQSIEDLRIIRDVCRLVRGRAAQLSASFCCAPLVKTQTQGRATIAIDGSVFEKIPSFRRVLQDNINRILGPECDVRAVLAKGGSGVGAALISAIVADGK

[16] = molecular target: Glucose-6-phosphate 1-dehydrogenase (Homo sapiens, UniProt P11413); experiment: inhibition of Homo sapiens G6PD, dose series – biochemical, fluorescence, selectivity assay for P. falciparum G6PD inhibitor project, dose response (AID 504792); format: functional
Sequence of Glucose-6-phosphate 1-dehydrogenase (P11413 whole entry, the tested form may be a part): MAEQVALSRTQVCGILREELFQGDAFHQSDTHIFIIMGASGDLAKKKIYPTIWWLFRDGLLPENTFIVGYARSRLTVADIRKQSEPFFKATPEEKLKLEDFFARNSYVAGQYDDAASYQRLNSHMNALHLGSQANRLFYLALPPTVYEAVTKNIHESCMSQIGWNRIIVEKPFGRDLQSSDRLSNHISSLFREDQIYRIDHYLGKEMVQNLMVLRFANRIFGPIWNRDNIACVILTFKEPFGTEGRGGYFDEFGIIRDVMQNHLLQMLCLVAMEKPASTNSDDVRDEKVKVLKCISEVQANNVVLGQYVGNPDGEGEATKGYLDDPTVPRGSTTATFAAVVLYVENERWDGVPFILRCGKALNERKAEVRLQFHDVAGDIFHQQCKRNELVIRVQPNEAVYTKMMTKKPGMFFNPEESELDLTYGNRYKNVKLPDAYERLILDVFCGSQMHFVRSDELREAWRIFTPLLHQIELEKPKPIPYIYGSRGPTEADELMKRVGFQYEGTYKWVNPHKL

[17] = Fluorescence-based cell-based high throughput dose response assay for inhibitors of the interaction of nucleotide-binding oligomerization domain containing 2 (NOD2) and the receptor-interacting serine-threonine kinase 2 (RIPK2).; format: functional; settings: Homo sapiens
[18] = molecular target: Voltage-dependent T-type calcium channel subunit alpha-1H (Homo sapiens, UniProt O95180); experiment: human CACNA1H calcium influx blockade – cell-based, synthetic library set 1, calcium flux (AID 493022); format: functional
[19] = molecular target: Alkaline phosphatase, placental type (Homo sapiens, UniProt P05187); experiment: human placental alkaline phosphatase inhibition – biochemical, luminescence, confirmation (AID 1512); format: functional
Sequence of Alkaline phosphatase, placental type (P05187 whole entry): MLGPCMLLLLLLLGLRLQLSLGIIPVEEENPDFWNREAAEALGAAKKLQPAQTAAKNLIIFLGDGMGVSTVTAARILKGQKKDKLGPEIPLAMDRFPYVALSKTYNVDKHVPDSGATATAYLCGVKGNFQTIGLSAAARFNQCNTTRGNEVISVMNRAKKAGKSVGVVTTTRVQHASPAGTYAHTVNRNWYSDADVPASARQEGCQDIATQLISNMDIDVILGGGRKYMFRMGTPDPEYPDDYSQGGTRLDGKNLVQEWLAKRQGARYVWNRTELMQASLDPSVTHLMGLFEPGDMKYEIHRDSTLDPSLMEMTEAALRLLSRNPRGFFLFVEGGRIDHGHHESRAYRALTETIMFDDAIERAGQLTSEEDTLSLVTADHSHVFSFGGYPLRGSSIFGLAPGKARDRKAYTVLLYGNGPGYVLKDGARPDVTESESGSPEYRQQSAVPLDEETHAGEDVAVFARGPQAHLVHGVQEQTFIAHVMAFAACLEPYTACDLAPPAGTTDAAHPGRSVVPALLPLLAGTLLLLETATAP

[20] = molecular target: T5, Alkaline phosphatase, tissue-nonspecific isozyme (Homo sapiens, UniProt P05186); experiment: potency against alkaline phosphatase TNAP – biochemical, luminescent, dose response, SAR follow-up (AID 1056)
T5 sequence (P05186 whole entry): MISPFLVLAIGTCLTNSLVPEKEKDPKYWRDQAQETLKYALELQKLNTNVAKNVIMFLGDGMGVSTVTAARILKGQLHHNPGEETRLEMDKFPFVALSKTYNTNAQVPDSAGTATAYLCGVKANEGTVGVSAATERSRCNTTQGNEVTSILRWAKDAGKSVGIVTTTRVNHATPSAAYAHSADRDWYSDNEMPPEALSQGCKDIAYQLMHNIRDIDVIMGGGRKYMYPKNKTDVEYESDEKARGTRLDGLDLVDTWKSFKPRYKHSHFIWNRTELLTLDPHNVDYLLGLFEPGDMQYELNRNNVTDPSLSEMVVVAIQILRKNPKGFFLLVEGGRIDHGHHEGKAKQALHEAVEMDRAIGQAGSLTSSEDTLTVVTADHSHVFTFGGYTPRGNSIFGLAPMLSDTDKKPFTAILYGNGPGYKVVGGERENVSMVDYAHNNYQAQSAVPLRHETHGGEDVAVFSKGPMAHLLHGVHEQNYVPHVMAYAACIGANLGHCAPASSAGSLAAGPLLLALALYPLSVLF

c1ccc(-c2nc(N3CCCCCC3)nc(-n3ccnc3)n2)cc1
CC50 [1]: 20.1 µM (active)
EC50 [2]: 4.08 µM (active)
EC50 (Streptokinase A): > 150 µM (not active)
IC50 [3]: 3.77 µM (active)
EC50 (Streptococcus): 7.9 µM (active)
AC50 [4]: 63.8 µM (active)
EC50 (Protein RecA): > 380 µM (inactive)

Cc1ccc(N2C(=O)c3cccc4c(N)ccc(c34)C2=O)c2cccnc12
EC50 [5]: < 0.1 µM (active)
EC50 [6]: 0.111 µM (active)
EC50 (cells): 0.101 µM (active)
EC50 [7]: < 0.1 µM (active)
EC50 [8]: < 0.1 µM (active)
EC50 [9]: 0.124 µM (active)
IC50 [10]: > 100 µM (inactive)
IC50 [11]: > 80 µM (inactive)

CC(=O)CCc1ccc(Oc2nc(-c3cccnc3)nc3ccccc23)cc1
IC50 [12]: > 100 µM (inactive)
IC50 (H9c2): > 79 µM (inactive)

Clc1nss/c1=N\C1CCC1
IC50 [13]: 15.6 µM (active)
IC50 (Phosphomannomutase 2): 76.3 µM (active)

Cc1ccccc1CSc1nnc(-c2ccccn2)n1Cc1cccs1
EC50 (Mu-type opioid receptor): > 32 µM (inactive)
EC50 [14]: > 32 µM (inactive)
EC50 [15]: 14.7 µM (inactive)

O=C(Cn1sc2ccccc2c1=O)Nc1ccc(Br)cc1
IC50 (Hexokinase): > 25 µM (inactive)
IC50 [16]: 24.2 µM (inactive)
IC50 [17]: 10.2 µM (inactive)

O=C(COc1ccc(F)cc1Cl)Nc1nnc(-c2ccc3c(c2)CCCC3)o1
EC50 [18]: 10 µM (active)

O=c1c2[nH]c3ccc(F)cc3c2ncn1CCc1ccc(O)c(O)c1
IC50 [19]: 1.04 µM (active)
IC50 [20]: 0.253 µM (active)
